Measured values reported in US20250269000A1, “ANTI-TUMOUR RESPONSES TO CYTOKERATINS” (SCANCELL LIMITED, priority 2020, published 2025).
Where a SMILES comes first, the peptide text is derived from it. [ ]: non-standard residue; d: D form. Cit = NC(=O)NCCC[C@H](N)C(=O)O

Tested on: B16 tumour cells
Assay: Tumour challenge, B16 in C57BL/6 mice
Type: in vivo, mouse
Conditions: immunised tumour bearing C57BL/6 mice
Description: C57BL/6 were challenged with B16 tumour (parental non-transfected cell line). Four days later the C57BL/6 mice were immunised with Cyk8 8-26 cit peptide. Overall survival (A), tumour volume (B) at day 13 and tumour volume throughout the study (C), post tumour implant are shown for unimmunised control mice and mice immunised with Cyk8 8-26 cit peptide. Statistical differences between immunised and control mice were determined by Mantel-Cox test, p values are shown. The tumour volume medians and p values are shown as determined by Mann Whitney U test, n=10 in all group.
For tumour challenge experiments, mice were challenged with 1×10^5 B16 HHDII/iDP4 cells subcutaneously on the right flank […] before primary immunisation (unless stated otherwise) and then immunised as described above. Tumour growth was monitored at 3-4 days intervals and mice humanely euthanised once tumour reached ≥10 mm in diameter.
The effect of immunisation with Cyk8 8-26 cit on the growth of the mouse B16 melanoma cell line was assessed in C57BL/6. Mice were challenged with B16 tumour cells 3 days prior to immunisation with Cyk8 8-26 cit.

**Q.** How did the associated toxicity turn out when CC(C)[C@H](NC(=O)[C@H](CCCCN)NC(=O)[C@H](Cc1ccc(O)cc1)NC(=O)[C@H](CO)NC(=O)[C@@H](N)CCCCN)C(=O)N[C@@H](CO)C(=O)N[C@H](C(=O)N[C@@H](CO)C(=O)NCC(=O)N1CCC[C@H]1C(=O)N[C@@H](CCCNC(N)=O)C(=O)N[C@@H](C)C(=O)N[C@@H](Cc1ccccc1)C(=O)N[C@@H](CO)C(=O)N[C@@H](CO)C(=O)N[C@@H](CCCNC(N)=O)C(=O)N[C@@H](CO)C(=O)N[C@@H](Cc1ccc(O)cc1)C(=O)N[C@H](C(=O)O)[C@@H](C)O)[C@@H](C)O [Cyk8 8-26 cit, KSYKVSTSGP-cit-AFSS-cit-SYT] (H-KSYKVSTSGP[Cit]AFSS[Cit]SYT-OH) was run?
**A.** no associated toxicity
